Assay results published in patent US9381176B2, “E-prostanoid receptor, Ptger3, as a novel anti-diabetic therapeutic target” (Wisconsin Alumni Research Foundation, priority 2012, dated 2016).
Entries after “also recorded” stand apart in the source; their conditions may differ. No end group written: not given here.

Columns and labels:
[1] = tested on: islets isolated from 10-week-old BTBR lean and Ob mice; experiment: Mouse islet glucose-stimulated insulin secretion (GSIS) assay; assay type: cell-based; conditions: for effect on GSIS from islets obtained from diabetic BTBR mice: diabetic (ob/ob) BTBR islets; for effect on GSIS from islets obtained from diabetic BTBR mice / effect on GSIS from islets obtained from non-diabetic mice: 16.7 mM glucose, PGE1 5 μM or L-798,106 20 μM, 1 hour static incubation; for effect on GSIS from islets obtained from non-diabetic mice: non-diabetic (lean) BTBR islets
Experimental: Mouse Islet Isolation & Culture. Intact pancreatic islets were isolated from 10-12-week-old BTBR lean and ob/ob mice using a known collagenase digestion protocol (Rabaglia et al., Am. J. Physiology Endo. Metab. 289:E218-224 (2005)). Instead of CO2 asphyxiation and decapitation, mice were Avertin-anesthetized and exsanguinated immediately prior to cannulation of the bile duct and inflation of the pancreas with a collagenase solution. Islets were cultured overnight in 5 ml RPMI 1640 containing 11.1 mM glucose and 10% heat-inactivated FBS with 1X penicillin/streptomycin prior to in vitro assay for insulin secretion and PGE2 production.
Mouse Islet Insulin Secretion and PGE2 Production Assays. Insulin secretion assays were performed in mesh-bottomed glass tubes essentially as in Rabaglia et al. (2005). Modifications include: 4 islets/replicate were picked into Krebs Ringer Bicarbonate Buffer (KRBB) containing 1.7 mM glucose and 0.25% BSA. Replicates were pre-incubated for 1 hour in fresh 1.7 mM KRBB before being transferred to stimulation medium containing the desired concentrations of glucose and drug treatment (e.g., PGE1, PGE2, and sulprostone [Sigma Aldrich] or L-798,106 [Tocris]). Insulin secretion as a percentage of total insulin content was determined using an in-house insulin ELISA, as described above.
As a first step in testing their hypothesis that the EP3 signaling pathway contributes to the pathophysiology of T2D, the Inventors subjected islets isolated from 10-week-old BTBR lean and Ob mice to treatment with a selective agonist (PGE1) or specific antagonist (L-798,106) of the EP3 receptor to monitor the impact on GSIS. Briefly, mouse islets were incubated in medium containing 1.7 mM glucose (non-stimulatory towards insulin secretion) or 16.7 mM glucose (stimulatory towards insulin secretion), with and without the addition of 5 μM PGE1 or 20 μM L-798,106.
GLP-1-based therapies are used in T2D therapy. To test the possibility that EP3 antagonism can augment the effect of GLP-1 agonism, islets from diabetic BTBR mice were treated with stimulatory glucose, with and without the addition of 50 nM GLP-1 and/or 10 μM […], and the level of insulin secretion monitored (FIG. 9).

[2] = tested on: human islets from non-diabetic or T2D cadaveric donors; experiment: Human islet insulin secretion assay; assay type: cell-based
Experimental: Human Islet Culture and Insulin Secretion Assays. Human islets were obtained through the Integrated Islet Distribution Program. On the day of arrival, islets were cultured overnight in RPMI containing 8 mM glucose, 10% heat-inactivated FBS, and 1X penicillin/streptomycin to confirm viability and sterility. Islets were cultured in 6 cm Petri dishes with approximately 1000 islet equivalents plated per dish. Islets were hand-picked and incubated an additional day in medium containing the desired concentration of glucose and/or xylitol before assaying for insulin secretion. Insulin secretion assays on human islets were performed identically to those described for mouse islets, except that 10 islets were used per replicate instead of 4.
Non-diabetic and T2D human islets were cultured for 48 hours in 8 mM glucose. A subset of the non-diabetic donor islets were also incubated with 0.5 mM xylitol, a glucose analog that is non-metabolizable beyond glucose-6 phosphate, during the final 24 hour culture period. […] Xylitol activates the FoxO1 transcription factor via glucose-6 phosphate formation, providing an alternative mechanism for up-regulating gene expression. Following 48 hours in culture, cellular insulin secretion was stimulated for 45 minutes with 16.7 mM glucose in the absence and presence of 10 μM L-798,106. Secreted insulin was normalized to total insulin content in order to determine the fractional release of insulin. Data from each human islet set was normalized to its own response in 16.7 mM glucose alone to isolate the effect of L-798,106 on GSIS (FIG. 6).

Ins-1 832/3 cells = experiment: INS1 cell insulin secretion assay; assay type: cell-based, rat; conditions: for minimum dose yielding maximum effect on GSIS inhibition: 2 hour stimulation
Experimental: INS1 Cell Culture and Insulin Secretion Assays. The glucose responsive rat beta cell line, INS1 (832/3) was cultured in RPMI 1640 (11.1 mM glucose) supplemented with NaHCO3, HEPES, heat-inactivated FBS, L-glutamine, sodium pyruvate and β-mercaptoethanol. 3 days prior to assay, 1×10^5 cells were plated per well in 96-well cell culture plates. Twenty-four hours prior to the assay, the medium was aspirated and fresh growth medium added. On the day of the assay, confluent Ins-1 832/3 cells were washed once with sterile PBS and pre-incubated for 2 hours in KRBB supplemented with 25 mM HEPES and containing 1.7 mM glucose and 0.2% BSA. Cells were then stimulated for 2 hours with KRBB containing 16.7 mM glucose and the desired concentrations of agonists/antagonists. Secretion buffer was collected and the secreted and cellular insulin content determined by acid/ethanol extraction, as described above.
Insulin secretion assays in Ins-1 832/3 cells were performed wherein the dose of PGE2 (a physiological agonist of EP3) or sulprostone (an EP3-selective agonist) were varied over a wide concentration range. […] The minimum dose of sulprostone yielding maximum effect on GSIS inhibition was approximately 10 nM and the minimum dose of PGE2 was approximately 50 nM.

[3] = diabetic patients treated with sitagliptin; cited from earlier work

In the case of `COc1ccc(Br)cc1S(=O)(=O)NC(=O)/C=C/c1ccccc1Cc1ccc2ccccc2c1` [L-798,106, (2E)-N-[(5-bromo-2-methoxyphenyl)sulfonyl]-3-[2-(2-naphthalenylmethyl)phenyl]-2-propenamide], the “effect on GSIS from islets obtained from diabetic BTBR mice” value [1] is reported as “significantly altered insulin secretion; also recorded: enhanced GSIS”, the “effect on GLP-1 dependent insulin secretion from diabetic BTBR islets” value ([1]; diabetic BTBR-ob/ob islets, 11.1 mM glucose, GLP-1 50 nM plus L-798,106 10 μM) is reported as “augments GLP-1 dependent insulin secretion” and the “effect on GSIS from islets obtained from non-diabetic mice” value [1] is reported as “had no effect on GSIS”. For the same compound, the “effect on insulin secretion from diabetic (T2D) human islets” value ([2]; T2D donor islets, 16.7 mM glucose, L-798,106 20 μM / 10 μM, 45 minute static incubation) was “can enhance insulin secretion; also recorded: differed significantly from responses of non-diabetic islets”, the “effect on insulin secretion from non-diabetic human islets” value ([2]; non-diabetic donors 5-7, cultured in 8 mM glucose, 16.7 mM glucose stimulation, 45 minute static incubation) was “non-responsive” and the “effect on insulin secretion from xylitol-incubated non-diabetic human islets” value ([2]; non-diabetic donors 5-7 incubated overnight in 8 mM glucose with 0.5 mM xylitol, 16.7 mM glucose stimulation, 45 minutes) was “effective to promote glucose dependent insulin secretion; also recorded: differed significantly from responses of non-diabetic islets”. The EC50 (Ins-1 832/3 cells; Rattus norvegicus, INS1, in the presence of 50 nM PGE2 (maximal inhibitory concentration), 16.7 mM glucose, 2 hour static incubation, read-out: approximate EC50 for restoring insulin secretion) was ~100 nM, the “reversal of sulprostone-dependent suppression of GSIS” value (Ins-1 832/3 cells; in the presence of 10 nM sulprostone, stimulatory glucose, dose response of L-798,106) was “reversed in a dose-dependent manner” and the “reversal of PGE2-dependent suppression of insulin secretion” value (Ins-1 832/3 cells; in the presence of 50 nM PGE2, increasing concentrations of L-798,106, 16.7 mM glucose) was “restored maximal insulin secretion; also recorded: reversed in a dose-dependent manner”.
In the case of `CCCCC[C@H](O)/C=C/[C@H]1[C@H](O)CC(=O)[C@@H]1CCCCCCC(=O)O` [PGE1], the “effect on GSIS from islets obtained from diabetic BTBR mice” value [1] is reported as “significantly altered insulin secretion; also recorded: reduced GSIS” and the “effect on GSIS from islets obtained from non-diabetic mice” value [1] is reported as “had no effect”.
With `CCCCC[C@H](O)/C=C/[C@H]1[C@H](O)CC(=O)[C@@H]1C/C=C\CCCC(=O)O` [PGE2] the IC50 (Ins-1 832/3 cells; 16.7 mM glucose, 2 hour static incubation, read-out: approximate IC50 for suppression of insulin secretion) was ~10 nM, the “minimum dose yielding maximum effect on GSIS inhibition” value (Ins-1 832/3 cells; 16.7 mM glucose) was “approximately 50 nM” and the “maximal reduction in insulin secretion” value (Ins-1 832/3 cells; 16.7 mM glucose, increasing concentrations, 2 hour static incubation) was ~80%. The “inhibition of GSIS (dose dependence)” value (Ins-1 832/3 cells; 16.7 mM glucose, wide concentration range) was “dose-dependently suppresses insulin secretion; also recorded: dose-dependently inhibited GSIS”.
For `N[C@@H](CC(=O)N1CCn2c(nnc2C(F)(F)F)C1)Cc1cc(F)c(F)cc1F` [sitagliptin], the “diabetic patients who fail to achieve HbAlc target of <7%” value [3] is listed as 35-60%.
With `CS(=O)(=O)NC(=O)CCC/C=C\C[C@H]1C(=O)C[C@@H](O)[C@@H]1/C=C/[C@@H](O)COc1ccccc1` [sulprostone] the “minimum dose yielding maximum effect on GSIS inhibition” value (Ins-1 832/3 cells; 16.7 mM glucose) was “approximately 10 nM”.
In the case of “glucagon-like peptide 1 (HAEGTFTSDVSSYLEGQAAKEFIAWLVKGR; ends and bridges not checked; UniProt P01275 98-127, looked up) [GLP-1, hormone glucagon-like peptide 1]”, the “effect of GLP-1 alone on insulin secretion from diabetic BTBR islets” value ([1]; diabetic BTBR islets, 11.1 mM glucose, GLP-1 50 nM) is reported as “significant impact on insulin secretion”.
